Compound: N[C@@H]1CCCN(c2c(/C=C3\SC(=O)NC3=O)cccc2-c2ccccc2)C1 [AZD1208] + N=C(N)NC(=N)NCCc1ccccc1 [Phenformin] (partner 250 µM)
Experiment: relative viability (nuclei count vs DMSO), 5 days (fraction); higher = more cells survive
Details: first compound 0.08 µM
Method in brief: (§1)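 For relative viability, nuclei counts in treated wells were divided by those in vehicle wells. Lung cancer cell lines had been pin-tool dosed in 1536-well plates the day after seeding and cultured for 5 days, then fixed and stained in one step (final 0.05% Triton X-100, 1% formaldehyde, 1 ug/ml Hoechst) and imaged at 4×. Doses were one drug alone or a fixed anchor-drug dose plus five library-drug doses (not always all listed) in √10 steps, and values are duplicate-plate medians.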

Question: How did the relative viability turn out when SK-LU-1 was run?
Answer: 0.502

Question: ABC-1 was tested. Which relative viability did it give?
Answer: 0.232

Question: NCI-H358 was tested. Which relative viability did it give?
Answer: 0.325

Question: NCI-H661 was tested. Which relative viability did it give?
Answer: 0.264

Question: RERF-LC-KJ was tested. Which relative viability did it give?
Answer: 0.402

Same assay, conditions: first compound 0.253 µM

Question: SK-LU-1 was tested. Which relative viability did it give?
Answer: 0.543

Question: Which relative viability does the source give for ABC-1 here?
Answer: 0.238

Question: With NCI-H358 as the cell line, how does the relative viability read?
Answer: 0.353

Question: NCI-H661 was tested. Which relative viability did it give?
Answer: 0.286

Question: RERF-LC-KJ was tested. Which relative viability did it give?
Answer: 0.44

Same assay, conditions: first compound 0.8 µM

Question: For SK-LU-1, which relative viability is on record?
Answer: 0.408

Question: Which relative viability does the source give for ABC-1 here?
Answer: 0.212

Question: Which relative viability does the source give for NCI-H358 here?
Answer: 0.309

Question: For NCI-H661, which relative viability is on record?
Answer: 0.276

Question: With RERF-LC-KJ as the cell line, how does the relative viability read?
Answer: 0.427

Same assay, conditions: first compound 2.53 µM

Question: Which relative viability does the source give for SK-LU-1 here?
Answer: 0.506

Question: How did the relative viability turn out when ABC-1 was run?
Answer: 0.229

Question: How did the relative viability turn out when NCI-H358 was run?
Answer: 0.305

Question: How did the relative viability turn out when NCI-H661 was run?
Answer: 0.295

Question: For RERF-LC-KJ, which relative viability is on record?
Answer: 0.41

Same assay, conditions: first compound 8 µM

Question: Which relative viability does the source give for SK-LU-1 here?
Answer: 0.42

Question: How did the relative viability turn out when ABC-1 was run?
Answer: 0.2

Question: How did the relative viability turn out when NCI-H358 was run?
Answer: 0.259

Question: How did the relative viability turn out when NCI-H661 was run?
Answer: 0.268

Question: How did the relative viability turn out when RERF-LC-KJ was run?
Answer: 0.379

Compound: CN1CCN(CC1)C2=CC(=C(C=C2)NC3=NC(=C(S3)C(=O)C4=C(C=CC=C4Cl)Cl)N)OC [XMD14-99] + CC(=O)c1c(C)c2cnc(Nc3ccc(N4CCNCC4)cn3)nc2n(C2CCCC2)c1=O [Palbociclib] (partner 0.5 µM)
Experiment: as above
Details: first compound 0.08 µM
Method in brief: as §1

Question: How did the relative viability turn out when SK-LU-1 was run?
Answer: 0.418

Question: How did the relative viability turn out when ABC-1 was run?
Answer: 0.783

Question: How did the relative viability turn out when NCI-H358 was run?
Answer: 0.0998

Question: For NCI-H661, which relative viability is on record?
Answer: 0.406

Question: RERF-LC-KJ was tested. Which relative viability did it give?
Answer: 1.01

Same assay, conditions: first compound 0.8 µM

Question: For SK-LU-1, which relative viability is on record?
Answer: 0.42

Question: How did the relative viability turn out when ABC-1 was run?
Answer: 0.722

Question: For NCI-H358, which relative viability is on record?
Answer: 0.147

Question: With NCI-H661 as the cell line, how does the relative viability read?
Answer: 0.452

Question: How did the relative viability turn out when RERF-LC-KJ was run?
Answer: 1.04

Same assay, conditions: first compound 2.53 µM

Question: SK-LU-1 was tested. Which relative viability did it give?
Answer: 0.356

Question: Which relative viability does the source give for ABC-1 here?
Answer: 0.651

Question: Which relative viability does the source give for NCI-H358 here?
Answer: 0.132

Question: NCI-H661 was tested. Which relative viability did it give?
Answer: 0.386

Question: How did the relative viability turn out when RERF-LC-KJ was run?
Answer: 0.952

Same assay, conditions: first compound 8 µM

Question: SK-LU-1 was tested. Which relative viability did it give?
Answer: 0.266

Question: For ABC-1, which relative viability is on record?
Answer: 0.634

Question: With NCI-H358 as the cell line, how does the relative viability read?
Answer: 0.124

Question: For NCI-H661, which relative viability is on record?
Answer: 0.358

Question: RERF-LC-KJ was tested. Which relative viability did it give?
Answer: 0.9

Compound: CN1CCN(CC1)C2=CC(=C(C=C2)NC3=NC(=C(S3)C(=O)C4=C(C=CC=C4Cl)Cl)N)OC [XMD14-99] + N=C(N)NC(=N)NCCc1ccccc1 [Phenformin] (partner 250 µM)
Experiment: as above
Details: first compound 0.08 µM
Method in brief: as §1

Question: SK-LU-1 was tested. Which relative viability did it give?
Answer: 0.523

Question: Which relative viability does the source give for ABC-1 here?
Answer: 0.237

Question: For NCI-H358, which relative viability is on record?
Answer: 0.306

Question: For NCI-H661, which relative viability is on record?
Answer: 0.292

Question: With RERF-LC-KJ as the cell line, how does the relative viability read?
Answer: 0.425

Same assay, conditions: first compound 0.8 µM

Question: SK-LU-1 was tested. Which relative viability did it give?
Answer: 0.563

Question: How did the relative viability turn out when ABC-1 was run?
Answer: 0.203

Question: With NCI-H358 as the cell line, how does the relative viability read?
Answer: 0.354

Question: With NCI-H661 as the cell line, how does the relative viability read?
Answer: 0.272

Question: With RERF-LC-KJ as the cell line, how does the relative viability read?
Answer: 0.45

Same assay, conditions: first compound 2.53 µM

Question: How did the relative viability turn out when SK-LU-1 was run?
Answer: 0.456

Question: How did the relative viability turn out when ABC-1 was run?
Answer: 0.227

Question: NCI-H358 was tested. Which relative viability did it give?
Answer: 0.267

Question: For NCI-H661, which relative viability is on record?
Answer: 0.263

Question: With RERF-LC-KJ as the cell line, how does the relative viability read?
Answer: 0.375

Same assay, conditions: first compound 8 µM

Question: SK-LU-1 was tested. Which relative viability did it give?
Answer: 0.322

Question: How did the relative viability turn out when ABC-1 was run?
Answer: 0.232

Question: For NCI-H358, which relative viability is on record?
Answer: 0.217

Question: Which relative viability does the source give for NCI-H661 here?
Answer: 0.296

Question: RERF-LC-KJ was tested. Which relative viability did it give?
Answer: 0.388

Compound: CN1CCN(CC1)C2=CC(=C(C=C2)NC3=NC(=C(S3)C(=O)C4=C(C=CC=C4Cl)Cl)N)OC [XMD14-99] + COc1cccc2cc(-c3nc([C@H]4CC[C@H](C(=O)O)CC4)n4ncnc(N)c34)[nH]c12 [OSI-027] (partner 0.5 µM)
Experiment: as above
Details: first compound 0.08 µM
Method in brief: as §1

Question: With SK-LU-1 as the cell line, how does the relative viability read?
Answer: 0.34

Question: With ABC-1 as the cell line, how does the relative viability read?
Answer: 0.431

Question: How did the relative viability turn out when NCI-H358 was run?
Answer: 0.702

Question: How did the relative viability turn out when NCI-H661 was run?
Answer: 0.777

Question: Which relative viability does the source give for RERF-LC-KJ here?
Answer: 0.572

Same assay, conditions: first compound 0.8 µM

Question: With SK-LU-1 as the cell line, how does the relative viability read?
Answer: 0.391

Question: ABC-1 was tested. Which relative viability did it give?
Answer: 0.551

Question: With NCI-H358 as the cell line, how does the relative viability read?
Answer: 0.813

Question: For NCI-H661, which relative viability is on record?
Answer: 0.673

Question: With RERF-LC-KJ as the cell line, how does the relative viability read?
Answer: 0.556

Same assay, conditions: first compound 2.53 µM

Question: With SK-LU-1 as the cell line, how does the relative viability read?
Answer: 0.301

Question: ABC-1 was tested. Which relative viability did it give?
Answer: 0.382

Question: NCI-H358 was tested. Which relative viability did it give?
Answer: 0.707

Question: Which relative viability does the source give for NCI-H661 here?
Answer: 0.498

Question: With RERF-LC-KJ as the cell line, how does the relative viability read?
Answer: 0.527

Same assay, conditions: first compound 8 µM

Question: SK-LU-1 was tested. Which relative viability did it give?
Answer: 0.213

Question: Which relative viability does the source give for ABC-1 here?
Answer: 0.291

Question: How did the relative viability turn out when NCI-H358 was run?
Answer: 0.404

Question: Which relative viability does the source give for NCI-H661 here?
Answer: 0.416

Question: For RERF-LC-KJ, which relative viability is on record?
Answer: 0.366

— the supplement of paper PMC10307832
